Experimental data reported in US20220211678A1, “USES OF (+)-A-DIHYDROTETRABENAZINE IN METHODS OF TREATING MOVEMENT DISORDER” (ADEPTIO PHARMACEUTICALS LIMITED, priority 2017, published 2022).

Key:
[1] = tested on: amphetamine-induced rats; assay: Amphetamine-induced locomotor activity and stereotypic behaviour, open field arena (Example 2, Studies 1, 2, 4); assay type: in vivo, rat; conditions: for normalised total stereotypic behaviour, compared to vehicle-amphetamine group / total distance travelled, compared to vehicle-amphetamine group: amphetamine at t=30 min; for locomotor activity compared to the vehicle-amphetamine group (conclusion) / stereotypic behaviour compared to the vehicle-amphetamine group (conclusion): risperidone 1 mg/kg
Excerpt: Dopaminergic models for Tourette's syndrome use systemic or focal administration of dopamine agonists such as amphetamine. After injection with amphetamine, a test animal expresses stereotypic behaviour. In particular, involvement of a dopaminergic system implicated in Tourette's syndrome wild type mice and rats can be stimulated with amphetamine and the resulting hyperactivity and stereotypies can be reversed with dopamine antagonists such as risperidone and haloperidol (Tourette's syndrome—Animal Models for Screening, Charles River Discovery Research Services, Finland).
All animal experiments were carried out according to the National Institute of Health (NIH) guidelines for the care and use of laboratory animals, and approved by the National Animal Experiment Board, Finland. Male CD (Charles River Laboratories, Germany) at weight range of 200-250 g (165-200 g upon arrival) were used for the experiments. Animals were housed at a standard temperature (22±1° C.) and in a light-controlled environment (lights on from 7 am to 8 pm) with ad libitum access to food and water.
Locomotor activity of the rats was tested in open field arena. The open field test was performed during the rat light cycle and under a normal lighting evenly distributed to the test chambers. The paths of the rats were recorded by activity monitor (Med. Associates Inc.).
Dosing the vehicle, vehicle-amphetamine, (+)-α-DHTBZ or risperidone was done prior to LMA test. The rats were placed in the centre of the arena, and the path was recorded for 60 minutes.
(§1) Animals were grouped as follows: • Group 1: 10 rats treated with Vehicle (t=0 min) and Vehicle (t=30 min) • Group 2: 10 rats treated with Vehicle (t=0 min) and Amphetamine (t=30 min) • Group 3: 10 rats treated with (+)-α-DHTBZ 0.5 mg/kg (t=0 min) and Amphetamine (t=30 min) • Group 4: 10 rats treated with (+)-α-DHTBZ 1 mg/kg (t=0 min) and Amphetamine (t=30 min) • Group 5: 10 rats treated with (+)-α-DHTBZ 1.5 mg/kg (t=0 min) and Amphetamine (t=30 min) • Group 6: 10 rats treated with (+)-α-DHTBZ 2 mg/kg (t=0 min) and Amphetamine (t=30 min) • Group 7: 10 rats treated with risperidone 1 mg/kg (t=0 min) and Amphetamine (t=30 min)
(§2) Rats dosed with either vehicle, (+)-α-DHTBZ 0.5 mg/kg, (+)-α-DHTBZ 1 mg/kg, (+)-α-DHTBZ 1.5 mg/kg, (+)-α-DHTBZ 2 mg/kg or Risperidone 1 mg/kg were subjected to LMA testing first for 30 min and then for 60 minutes after vehicle or amphetamine challenge. Resulting locomotor activity was evaluated in 3 min bins and as a total over the testing period.
as §2, with “stereotypic” for “locomotor”
Animals were grouped as follows: • Group 1: 10 rats treated with Vehicle (t=0 min) and Vehicle (t=30 min) • Group 2: 10 rats treated with Vehicle (t=0 min) and Amphetamine (t=30 min) • Group 3: 10 rats treated with (+)-α-DHTBZ 0.1 mg/kg (t=0 min) and Amphetamine (t=30 min) • Group 4: 10 rats treated with (+)-α-DHTBZ 0.25 mg/kg (t=0 min) and Amphetamine (t=30 min) • Group 5: 10 rats treated with risperidone 1 mg/kg (t=0 min) and Amphetamine (t=30 min)
as §1, with “(+)-α-DHTBZ 1” for “(+)-α-DHTBZ 0.5”, “(+)-α-DHTBZ 1.5” for “(+)-α-DHTBZ 1”, “with Valbenazine 1” for “with (+)-α-DHTBZ 1.5”, “with Valbenazine 1.5” for “with (+)-α-DHTBZ 2”

[2] = target: T1, VMAT2 (Homo sapiens, UniProt Q05940); assay: % VMAT2 blocking by PET scan 6-7 hours after oral dosing of human volunteers (Example 1B); assay type: in vivo; conditions: for reduction of level of VMAT2 blocking after 6-7 hours compared to 1-2 hours following administration: 7.5 mg
T1 construct: from tissue; host or cells: brain of living human volunteers, measured by PET
T1 sequence (Q05940 whole entry): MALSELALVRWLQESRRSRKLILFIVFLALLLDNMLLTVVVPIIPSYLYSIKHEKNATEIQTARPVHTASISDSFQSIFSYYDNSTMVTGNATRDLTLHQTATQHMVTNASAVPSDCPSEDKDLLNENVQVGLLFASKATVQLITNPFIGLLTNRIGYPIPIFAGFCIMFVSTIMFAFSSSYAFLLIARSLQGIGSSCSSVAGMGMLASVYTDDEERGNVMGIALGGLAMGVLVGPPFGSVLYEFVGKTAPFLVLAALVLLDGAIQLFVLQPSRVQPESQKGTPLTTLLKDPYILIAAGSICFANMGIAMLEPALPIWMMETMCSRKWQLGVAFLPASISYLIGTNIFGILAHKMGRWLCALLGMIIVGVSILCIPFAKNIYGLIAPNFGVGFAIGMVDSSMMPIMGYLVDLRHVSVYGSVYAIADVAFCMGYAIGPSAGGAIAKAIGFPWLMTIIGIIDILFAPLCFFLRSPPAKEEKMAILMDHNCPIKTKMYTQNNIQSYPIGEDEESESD
Excerpt: Complete blocking of VMAT2 is considered undesirable as this can lead to unwanted side effects, such as Parkinsonism. […] The levels of VMAT2 blocking can be determined by competitive binding studies using Positron Emission Tomography (PET). By co-administering a radioactive ligand with the compound of interest at various concentrations, the proportion of binding sites occupied can be determined (see for example, Matthews et al., “Positron emission tomography molecular imaging for drug development”, Br. J. Clin. Pharmacol., 73:2, 175-186). Accordingly, the invention also provides:
(§3) Volunteers 1 and 2 were the same as volunteers 1 and 2 in Example 1A described above. […] Blood sample were taken from all volunteers 1 to 3 at 2, 4, 6 and 7 hours after drug administration. In addition, in all volunteers PET scans were initiated at 6 hours after drug administration and these were stopped at 7 hours after drug administration.

[3] = Plasma levels of (+)-α-dihydrotetrabenazine up to 7 hours after oral dosing of human volunteers (Example 1B); assay type: in vivo; conditions: 7.5 mg, 7.5 mg oral
Method: as §3

[4] = Study 1, (+)-α-DHTBZ at all the tested doses (0.5, 1, 1.5, 2 mg/kg)

## COc1cc2c(cc1OC)[C@H]1C[C@@H](O)[C@H](CC(C)C)CN1CC2 [(+)-α-dihydrotetrabenazine, (R,R,R)-3-isobutyl-9,10-dimethyloxy-1,3,4,5,7,11b-hexahydro-2H-pyrido[2,1-a]isoquinolin-2-ol]
[1]; Study 1, 0.5 mg/kg
  normalised total stereotypic behaviour, compared to vehicle-amphetamine group: significantly different
[1]; Study 1, 1 mg/kg
  normalised total stereotypic behaviour, compared to vehicle-amphetamine group: significantly different
[1]; Study 1, 1.5 mg/kg
  normalised total stereotypic behaviour, compared to vehicle-amphetamine group: significantly different
[1]; Study 1, 2 mg/kg
  normalised total stereotypic behaviour, compared to vehicle-amphetamine group: significantly different
[1]; [4]
  locomotor activity compared to the vehicle-amphetamine group (conclusion): lower locomotor activity
  stereotypic behaviour compared to the vehicle-amphetamine group (conclusion): reduced stereotypic behaviour
[1]; Study 2, 0.1 mg/kg
  normalised total stereotypic behaviour, compared to vehicle-amphetamine group: significantly different
[1]; Study 2, 0.25 mg/kg
  normalised total stereotypic behaviour, compared to vehicle-amphetamine group: significantly different
[1]; Study 2, (+)-α-DHTBZ at 0.25 mg/kg
  locomotor activity compared to the vehicle-amphetamine group (conclusion): lower locomotor activity
[1]; Study 2, (+)-α-DHTBZ at both the tested doses (0.1, 0.25 mg/kg)
  stereotypic behaviour compared to the vehicle-amphetamine group (conclusion): reduced stereotypic behaviour
[1]; Study 4, 1 mg/kg and 1.5 mg/kg
  locomotor activity compared to the vehicle-amphetamine group and the corresponding dose of Valbenazine (conclusion): lower locomotor activity
[1]; Study 4, 1 mg/kg
  normalised total stereotypic behaviour, compared to vehicle-amphetamine group: significantly different
  total distance travelled, compared to vehicle-amphetamine group: significantly different
[1]; Study 4, 1.5 mg/kg
  normalised total stereotypic behaviour, compared to vehicle-amphetamine group: significantly different
  total distance travelled, compared to vehicle-amphetamine group: significantly different
[1]; Study 4, both the tested doses (1 mg/kg and 1.5 mg/kg)
  stereotypic behaviour compared to the vehicle-amphetamine group and the corresponding dose of Valbenazine (conclusion): reduced stereotypic behaviour
[2]; 7.5 mg oral, PET scan 6-7 hours after administration, subject 1 (112 kg)
  % VMAT2 blocking: 38%
[2]; 7.5 mg oral, PET scan 6-7 hours after administration, subject 2 (76 kg)
  % VMAT2 blocking: 65%
[2]; 7.5 mg oral, PET scan 6-7 hours after administration, subject 3 (76 kg)
  % VMAT2 blocking: 41%
[2]; 7.5 mg oral, PET scan 6-7 hours after administration, subject 4 (95 kg)
  % VMAT2 blocking: 34%
[2]; 7.5 mg oral, PET scan 6-7 hours after administration, subject 5 (99 kg)
  % VMAT2 blocking: 36%
[2]; subject 1
  reduction of level of VMAT2 blocking after 6-7 hours compared to 1-2 hours following administration: 30%
[2]; subject 2
  reduction of level of VMAT2 blocking after 6-7 hours compared to 1-2 hours following administration: 11%
[2]; after 6 hours following administration of 7.5 mg
  % VMAT2 blocking: greater than 30%
[3]; subject 1 (112 kg)
  concentration at 2 h: 6.01 ng/mL
  concentration at 4 h: 4.54 ng/mL
  concentration at 6 h: 3.65 ng/mL
  concentration at 7 h: 8.7 ng/mL
[3]; subject 2 (76 kg)
  concentration at 2 h: 17.5 ng/mL
  concentration at 4 h: 4.54 ng/mL
  concentration at 6 h: 3.65 ng/mL
  concentration at 7 h: 11.7 ng/mL
[3]; subject 3 (76 kg)
  concentration at 2 h: 7.92 ng/mL
  concentration at 4 h: 5.57 ng/mL
  concentration at 6 h: 4.84 ng/mL
  concentration at 7 h: 12.8 ng/mL
